{
  "source": "paper PMC3756492",
  "about": "(Journal of medicinal chemistry, 2010)",
  "key": {"[1]": {"biological_target": "DAT (Macaca fascicularis, UniProt Q9GJT6)", "sequence (Q9GJT6 whole entry)": "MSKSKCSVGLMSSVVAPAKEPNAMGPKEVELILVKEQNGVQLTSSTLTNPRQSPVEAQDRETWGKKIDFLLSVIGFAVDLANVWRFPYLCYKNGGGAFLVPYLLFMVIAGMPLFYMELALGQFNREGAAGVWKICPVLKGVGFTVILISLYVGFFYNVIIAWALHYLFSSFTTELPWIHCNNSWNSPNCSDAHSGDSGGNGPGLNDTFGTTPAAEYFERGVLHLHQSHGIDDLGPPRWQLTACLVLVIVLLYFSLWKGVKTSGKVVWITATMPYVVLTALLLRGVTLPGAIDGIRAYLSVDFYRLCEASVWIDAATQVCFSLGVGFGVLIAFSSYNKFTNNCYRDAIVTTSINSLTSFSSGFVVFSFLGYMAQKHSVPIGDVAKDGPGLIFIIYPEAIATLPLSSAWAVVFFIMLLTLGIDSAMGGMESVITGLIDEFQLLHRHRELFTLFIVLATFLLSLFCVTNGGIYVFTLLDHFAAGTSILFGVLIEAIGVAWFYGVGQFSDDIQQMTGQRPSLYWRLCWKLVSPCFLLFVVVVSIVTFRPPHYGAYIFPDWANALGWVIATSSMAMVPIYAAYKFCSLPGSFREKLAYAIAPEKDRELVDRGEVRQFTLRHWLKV", "test": "MicroPET imaging in anesthetized cynomolgus monkeys", "format": "in vivo", "details": "anesthetized cynomolgus monkey"}, "[2]": {"test_system": "DAT", "test": "HRRT PET imaging in an awake rhesus monkey", "format": "in vivo", "details": "HRRT PET images"}},
  "data": [
    {"smiles": "COC(=O)C1C(c2ccc(F)cc2)CC2CCC1N2C/C=C/C[18F]", "note": "(stereo not drawn) [[^18F]9, A-((E)-4-[^18F]fluorobut-2-en-1-yl)-2β-carbomethoxy-3β-(4′-fluorophenyl)nortropane]", "values": [
      {"measurement": "Displacement of radiotracer in chase study", "setting": "[1]; 19 (RTI-113•HCl) 0.3 mg/kg at 90 min post-injection", "value": "complete displacement"},
      {"measurement": "Time to peak uptake in the putamen", "setting": "[1]; microPET baseline", "value": "≤ 20", "unit": "min"},
      {"measurement": "Time to peak uptake in the substantia nigra", "setting": "[1]; microPET baseline", "value": "≤ 10", "unit": "min"},
      {"measurement": "Defluorination (radioactivity in the skull)", "setting": "[1]; microPET images", "value": "low degree of defluorination"},
      {"measurement": "Defluorination (visualization of the skull)", "setting": "[2]", "value": "some degree of defluorination"}
    ]}
  ]
}
